This is an account of results in patent US5229381A, “Substituted azetidinones as anti-inflammatory and antidegenerative agents” (Merck & Co., Inc., priority 1991, dated 1993).

Molecules are shown by their SMILES.

The target of one experiment is T1, human polymorphonuclear leukocyte elastase (Homo sapiens, UniProt P08246).
T1 construct: Crude extract of human polymorphonuclear leukocytes (PMN) containing elastase activity; endogenous in cells; host or cells: human polymorphonuclear leukocytes (crude extract)
T1 sequence (P08246 30-247 limits assumed): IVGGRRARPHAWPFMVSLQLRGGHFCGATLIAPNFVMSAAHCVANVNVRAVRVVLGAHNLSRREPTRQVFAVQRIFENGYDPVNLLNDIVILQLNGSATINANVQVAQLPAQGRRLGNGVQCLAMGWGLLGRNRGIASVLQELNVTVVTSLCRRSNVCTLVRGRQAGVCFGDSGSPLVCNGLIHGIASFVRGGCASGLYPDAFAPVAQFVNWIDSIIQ
Briefly: Inhibition of human polymorphonuclear leukocyte (granulocyte) elastase via hydrolysis of Boc-AAPAN or Boc-AAPVN. It is filed as biochemical. Conditions: Table I; read-out: Ki, concentration of the inhibitor giving 50% of the control enzyme activity.
Regarding `CC[C@H]1C(=O)N(C(C)=O)[C@H]1OC(=O)c1ccccc1` (relative stereo) [Table I: H; C2 H5 (cis); OCOPh; COCH3], the Ki was found to be 210 nM.
On the same count and under the same terms, then `CC[C@H]1C(=O)N(S(=O)(=O)c2ccc(C)cc2)[C@H]1C(=O)OCc1ccc(C(=O)O)cc1` (relative stereo), with 4200 nM; and `CCC1C(=O)N(C(C)=O)C1OC(=O)CCC(=O)O` (centres unmarked), with 2000 nM.
On the same count and under the same terms, then `CCC1C(=O)N(C(=O)c2ccccc2)C1C(C)=O` (stereo not drawn) [Table I: H; C2 H5 (trans); COCH3; COPh], with 340 nM.
In the case of `CC[C@H]1C(=O)N(C(C)=O)[C@@H]1OC(=O)c1ccccc1` (relative stereo) [Table I: H; C2 H5 (trans); OCOPh; COCH3], the Ki worked out at 190 nM.

The same experiment, now with this note: Table IV, (per mole per second).
Turning to `CCCC1(CCC)C(=O)N(C(=O)NC(C)c2ccccc2)C1Oc1ccc(C(=O)O)cc1` (single isomer, unassigned) [Table IV: C3 H7; C3 H7; O-(4-COOHPh); drawing 47 (lower Rf isomer)], the “kobs/I, second order rate constant of inactivation of the enzyme” value amounted to 1446 M⁻¹ s⁻¹.

The experiment is the same for the next values; noted with them: pH 7.5, Table I; read-out: kobs/I, second order rate constant of inactivation of the enzyme.
In the case of `CCC[C@H]1C(=O)N(C(=O)OCC)[C@@H]1OCC(=O)O` (relative stereo), the kinact/KI stood at 1500 M⁻¹ s⁻¹.
The same measure, in the same setting: to `CCOC(=O)N1C(=O)[C@H](CC)[C@H]1OC(C)C(=O)O` (relative stereo) belongs 346 M⁻¹ s⁻¹; to `CCOC(=O)N1C(=O)[C@H](CC)[C@@H]1OCC(=O)O` (relative stereo), 796 M⁻¹ s⁻¹.

Staying with this experiment, now noted: pH 7.5, Table II, (per mole per second); read-out: kobs/I, second order rate constant of inactivation of the enzyme.
On to `CCC1(CC)C(=O)N(C(=O)NCc2ccco2)C1Oc1ccc(C(=O)O)cc1` (centres unmarked), for which the kinact/KI was found to be 5220 M⁻¹ s⁻¹.
Turning to `CCC1(CC)C(=O)N(C(=O)NCc2ccc(F)cc2)C1Oc1ccc(C(=O)O)cc1` (centres unmarked), the kinact/KI came out at 2340 M⁻¹ s⁻¹.
The same measure, in the same setting: then `O=C(O)c1ccc(OC2N(C(=O)NCc3ccccc3)C(=O)C23CCCC3)cc1` (centres unmarked), with 1900 M⁻¹ s⁻¹; and `CC[C@@]1(C)C(=O)N(C(=O)NCc2ccccc2)[C@H]1Oc1ccc(C(=O)O)cc1` [(3R,4S)-1-(benzylaminocarbonyl)-3-ethyl-3-methyl-4-(4-carboxy)phenoxyazetidin-2-one], with 2000 M⁻¹ s⁻¹.
For the molecule `CCC1(CC)C(=O)N(C(=O)NCCCCC(O)c2ccccc2)C1Oc1ccc(C(=O)O)cc1` (centres unmarked), the kinact/KI turned out to be 4200 M⁻¹ s⁻¹.
On the same count and under the same terms, to `CCC1(COC)C(=O)N(C(=O)NCc2ccccc2)C1Oc1ccc(C(=O)O)cc1` (centres unmarked) belongs 1900 M⁻¹ s⁻¹; to `CCC(NC(=O)N1C(=O)C(C)(CC)C1Oc1ccc(C(=O)O)cc1)c1ccc2occc2c1` (centres unmarked), 750000 M⁻¹ s⁻¹; to `CCC1(C)C(=O)N(C(=O)NCc2cc(C)c(C(=O)O)c(C)c2)C1Oc1ccc(C(=O)O)cc1` (centres unmarked), 5600 M⁻¹ s⁻¹.
Turning to `CCCC1(CC)C(=O)N(C(=O)NCc2ccc3ccccc3c2)C1Oc1ccc(C(=O)O)cc1` (centres unmarked), the kinact/KI came out at 51000 M⁻¹ s⁻¹.
Same read-out and setting: to `CCC1(CC)C(=O)N(C(=O)NCCCc2ccccc2)C1Oc1ccc(C(=O)O)cc1` (centres unmarked) belongs 4540 M⁻¹ s⁻¹.
Same read-out and setting: then `CCC1(CC)C(=O)N(C(=O)NCc2ccccc2)C1Oc1ccc(C(=O)N2CCC[C@H]2C(=O)O)cc1` (some centres unmarked) [Table II: C2 H5; C2 H5; drawing 37; CH2 Ph], with 2000 M⁻¹ s⁻¹; and `CCC1(C)C(=O)N(C(=O)NCc2ccc(OC)c(OC)c2)C1Oc1ccc(C(=O)O)cc1` (centres unmarked), with 11300 M⁻¹ s⁻¹.
Same read-out and setting: then `CCC1(CC)C(=O)N(C(=O)NC(C)c2cccc3ccccc23)C1Oc1ccc(C(=O)O)cc1` (centres unmarked), with 14100 M⁻¹ s⁻¹; and `CCC1(CC)C(=O)N(C(=O)NCCCCOc2ccccc2)C1Oc1ccc(C(=O)O)cc1` (centres unmarked), with 3450 M⁻¹ s⁻¹; and `CCC1(CC)C(=O)N(C(=O)NCc2ccccc2)C1Oc1cccc(C(=O)NCc2ccccc2)c1` (centres unmarked), with 3050 M⁻¹ s⁻¹.

Staying with this experiment, now noted: pH 7.5, Table III, (per mole per second); read-out: kobs/I, second order rate constant of inactivation of the enzyme.
Consider `CCC1(CC)C(=O)N(C(=O)NCc2ccccc2)C1NC(=O)OC` (centres unmarked) [Table III: NHCOOMe; CH2 Ph], for which the kinact/KI was 496 M⁻¹ s⁻¹.
The same measure, in the same setting: to `CCC1(CC)C(=O)N(C(=O)NCc2ccccc2)C1n1cnc2ccccc21` (centres unmarked) [Table III: 1-benzimidazolyl; CH2 Ph] belongs 69 M⁻¹ s⁻¹; to `CCC(NC(=O)N1C(=O)C(CC)(CC)C1OCC(N)=O)c1ccccc1` (centres unmarked) [Table III: OCH2CONH2; CH(Et)Ph], 103000 M⁻¹ s⁻¹.
Same read-out and setting: to `CCC1(CC)C(=O)N(C(=O)NCc2ccc(Cc3ccccc3)cc2)C1Oc1ccc(C(=O)O)cc1` (centres unmarked) belongs 8030 M⁻¹ s⁻¹; to `CCC1(CC)C(=O)N(C(=O)NCc2ccc(OC)c(C)c2)C1Oc1ccc(C(=O)O)cc1` (centres unmarked), 13100 M⁻¹ s⁻¹; to `CCC1(CC)C(=O)N(C(=O)NCc2ccc(C(C)=O)cc2)C1Oc1ccc(C(=O)O)cc1` (centres unmarked) [Table III: O-(4-COOHPh); CH2 Ph(4-COMe)], 5920 M⁻¹ s⁻¹.
Regarding `CCC1(CC)C(=O)N(C(=O)NCc2ccc(-c3ccccc3)cc2)C1n1cncn1` (centres unmarked) [Table III: 1-triazolyl; CH2 Ph-4-Ph], the kinact/KI came out at 2140 M⁻¹ s⁻¹.
For `CCC1(CC)C(=O)N(C(=O)NCc2ccccc2)C1n1ccccc1=O` (centres unmarked) [Table III: [2H-1-pyridonyl]; CH2 Ph], the kinact/KI was determined as 357 M⁻¹ s⁻¹.

The experiment is the same for the next values; noted with them: pH 7.5, Table IV, (per mole per second); read-out: kobs/I, second order rate constant of inactivation of the enzyme.
As to `CCC1C(=O)N(C(=O)N(CC)Cc2ccccc2)C1Oc1ccc(C(=O)O)cc1` (centres unmarked), the kinact/KI came out at 83000 M⁻¹ s⁻¹.

The experiment is the same for the next values; noted with them: pH 7.5, Table V, (per mole per second); read-out: kobs/I, second order rate constant of inactivation of the enzyme.
As for `CCC[C@@H](NC(=O)N1C(=O)C(CC)(CC)[C@@H]1Oc1ccc(C(=O)O)cc1)c1ccccc1` [Table V: 4-COOH; nPr; H], the kinact/KI came out at 120000 M⁻¹ s⁻¹.
As to `CC[C@@H](NC(=O)N1C(=O)C(CC)(CC)[C@@H]1Oc1ccc(C(=O)O)cc1)c1ccccc1` [Table V: 4-COOH; Et; H], the kinact/KI turned out to be 92000 M⁻¹ s⁻¹.

Still in this experiment, the particulars now being: pH 7.5, Table VI, (per mole per second); read-out: kobs/I, second order rate constant of inactivation of the enzyme.
Turning to `CC[C@@H](NC(=O)N1C(=O)C(CC)(CC)[C@@H]1Oc1ccc(C(=O)CCC(=O)O)cc1)c1ccccc1` [Table VI: 4-CO(CH2)2 COOH; Et; H], the kinact/KI stood at 272000 M⁻¹ s⁻¹.
In the case of `CCC1(CC)C(=O)N(C(=O)N[C@H](C)c2ccccc2)[C@H]1Oc1ccc(C(=O)O)cc1` [Table VI: 4-COOH; Me; H], the kinact/KI turned out to be 4020 M⁻¹ s⁻¹.
On the same count and under the same terms, then `CCC[C@@H](NC(=O)N1C(=O)C(CC)(CC)[C@@H]1Oc1ccc(C(=O)O)cc1)c1ccc(C)cc1` [Table VI: 4-COOH; nPr; 4-Me, (4S)-3,3-diethyl-1-[(R)-α-n-propyl-(4-methyl)-benzylaminocarbonyl]-4-[(4-carboxy)phenoxy]azetidin-2-one], with 389000 M⁻¹ s⁻¹.
The same measure, in the same setting: to `CCC[C@@H](NC(=O)N1C(=O)C(CC)(CC)[C@@H]1Oc1ccc(CC(=O)O)cc1)c1ccc2occc2c1` [Table VI: 4-Ch2(OOH); nPr; 3,4(-CHCHO), (4S)-3,3-Diethyl-1-[[(R)-1-(benzofuran-5-yl)butylamino]carbonyl]-4-[4-(carboxymethyl)phenoxy]azetidin-2-one] belongs 848000 M⁻¹ s⁻¹.
For the molecule `CCC1(CC)C(=O)N(C(=O)N[C@@H](C)c2ccc(-c3ccccc3)cc2)[C@H]1Oc1ccc(C(=O)O)cc1` [Table VI: 4-COOH; Me(s); 4-Ph], the kinact/KI was found to be 49200 M⁻¹ s⁻¹.
The same measure, in the same setting: then `CCC[C@@H](NC(=O)N1C(=O)C(CC)(CC)[C@@H]1Oc1ccc(C(=O)O)c(C)c1)c1ccc(C)cc1` [Table VI: 3-Me,4-COOH; nPr; 4-Me, (4S)-3,3-diethyl-1-[(R)-α-n-propyl-(4-methyl)benzylaminocarbonyl]-4-[(4-carboxy-3-methyl)phenoxy]azetidin-2-one], with 186000 M⁻¹ s⁻¹; and `CCC[C@@H](NC(=O)N1C(=O)C(CC)(CC)[C@@H]1Oc1ccc(CC(=O)O)c(C)c1)c1ccc(C)cc1` [Table VI: 3-Me,4-CH2 COOH; nPr; 4-Me], with 998000 M⁻¹ s⁻¹.
The same measure, in the same setting: then `CCC1(CC)C(=O)N(C(=O)N[C@H](COC)c2ccccc2)[C@H]1Oc1ccc(C(=O)O)cc1` [Table VI: 4-COOH; CH2 OMe(s); H], with 6980 M⁻¹ s⁻¹.
The same measure, in the same setting: to `CCC[C@@H](NC(=O)N1C(=O)C(CC)(CC)[C@@H]1Oc1ccc(C(=O)O)c(F)c1)c1ccc(C)cc1` [Table VI: 3-F,4-COOH; nPr; 4-Me, (4S)-3,3-Diethyl-1-[(R)-α-n-propyl-(4-methyl)benzylaminocarbonyl]-4-[(4-carboxy-3-fluoro)phenoxy]-azetidin-2-one] belongs 464000 M⁻¹ s⁻¹.
For `CCC[C@@H](NC(=O)N1C(=O)C(CC)(CC)[C@@H]1Oc1ccc(CC(=O)O)c(Cl)c1)c1ccc(C)cc1` [Table VI: 3-Cl,4-CH2 COOH; nPr; 4-Me, (4S)-3,3-Diethyl-1-[(R)-α-n-propyl-(4-methyl)benzylaminocarbonyl]-4-[(4-carboxymethyl-3-chloro)phenoxy]azetidin-2-one], the kinact/KI worked out at 589000 M⁻¹ s⁻¹.
Still for that read-out and setting: then `CCC1(CC)C(=O)N(C(=O)N[C@@H](COC)c2ccccc2)[C@H]1Oc1ccc(C(=O)O)cc1` [Table VI: 4-COOH; CH2 OMe(R); H], with 6980 M⁻¹ s⁻¹.
The same measure, in the same setting: to `CCC[C@@H](NC(=O)N1C(=O)C(CC)(CC)[C@@H]1Oc1ccc(C(=O)O)c(Cl)c1)c1ccc(C)cc1` [Table VI: 3-Cl,4-COOH; nPr; 4-Me, (4S)-3,3-Diethyl-1-[(R)-α-n-propyl-(4-methyl)benzylaminocarbonyl]-4-[(4-carboxy-3-chloro)phenoxy]-azetidin-2-one] belongs 621000 M⁻¹ s⁻¹.

Still in this experiment, the particulars now being: pH 7.5, read-out: kobs/I, second order rate constant of inactivation of the enzyme.
Consider `CCOC(=O)[C@H]1[C@@H](CC)C(=O)N1S(=O)(=O)c1ccc([N+](=O)[O-])cc1` (relative stereo) [4-Carboethoxy-3-ethyl-1-(p-nitrobenzenesulfonyl)-azetidin-2-one], for which the kinact/KI worked out at 3920 M⁻¹ s⁻¹.
The same measure, in the same setting: then `CC[C@H]1C(=O)N(C(C)=O)[C@H]1OC(=O)c1ccccc1` (relative stereo) [Table I: H; C2 H5 (cis); OCOPh; COCH3], with 28500 M⁻¹ s⁻¹; and `CC[C@H]1C(=O)N(S(=O)(=O)c2ccc(C)cc2)[C@H]1C(=O)OCc1ccc(C(=O)O)cc1` (relative stereo), with 299 M⁻¹ s⁻¹; and `CCC1C(=O)N(C(C)=O)C1OC(=O)CCC(=O)O` (centres unmarked), with 4510 M⁻¹ s⁻¹.
Regarding `CCC1C(=O)N(C(=O)c2ccccc2)C1C(C)=O` (stereo not drawn) [Table I: H; C2 H5 (trans); COCH3; COPh], the kinact/KI worked out at 76600 M⁻¹ s⁻¹.
The same measure, in the same setting: then `CC[C@H]1C(=O)N(C(C)=O)[C@@H]1OC(=O)c1ccccc1` (relative stereo) [Table I: H; C2 H5 (trans); OCOPh; COCH3], with 81000 M⁻¹ s⁻¹.
